These results are taken from article PMC7076788, “Interactions of Destruxin A with Silkworms’ Arginine tRNA Synthetase and Lamin-C Proteins” (Toxins, 2020).

Broadly, the pKd is the negative decadic logarithm of the Kd, by convention in mol/L. Low values mean a large Kd, high ones a small Kd.

Assay in all cases: bio-layer interferometry, immobilised protein
What all share (format): binding

The target of experiment [1] is T1, BmArgRS (Bombyx mori, UniProt A0A8R1WK71).
T1 construct: gene 101737924; apparently full length (catalytic core 216-481)
T1 sequence (A0A8R1WK71 1-683): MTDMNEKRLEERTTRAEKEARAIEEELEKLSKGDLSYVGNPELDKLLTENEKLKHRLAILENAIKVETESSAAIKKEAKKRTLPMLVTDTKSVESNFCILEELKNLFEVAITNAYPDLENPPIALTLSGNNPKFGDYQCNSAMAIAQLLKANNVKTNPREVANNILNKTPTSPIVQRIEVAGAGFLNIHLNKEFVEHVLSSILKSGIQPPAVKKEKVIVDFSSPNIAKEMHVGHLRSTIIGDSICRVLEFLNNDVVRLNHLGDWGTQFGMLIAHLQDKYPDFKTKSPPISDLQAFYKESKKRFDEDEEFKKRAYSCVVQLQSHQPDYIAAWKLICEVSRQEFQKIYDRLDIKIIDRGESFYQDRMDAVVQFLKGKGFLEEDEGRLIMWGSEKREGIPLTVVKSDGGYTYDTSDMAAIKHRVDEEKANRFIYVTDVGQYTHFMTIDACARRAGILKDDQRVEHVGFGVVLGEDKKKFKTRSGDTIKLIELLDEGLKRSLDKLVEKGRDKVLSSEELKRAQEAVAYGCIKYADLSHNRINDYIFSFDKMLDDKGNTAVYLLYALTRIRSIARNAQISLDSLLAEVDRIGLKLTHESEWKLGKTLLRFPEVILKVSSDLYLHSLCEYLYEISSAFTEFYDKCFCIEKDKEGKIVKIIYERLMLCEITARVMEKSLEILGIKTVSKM
The source says: bio-layer interferometry, immobilised protein on BmArgRS

Experiment [2] addresses T2, BmArgRS (Bombyx mori, UniProt A0A8R1WK71, K475A).
T2 construct: gene 101737924; apparently full length (catalytic core 216-481)
T2 sequence (A0A8R1WK71 1-683 K475A): T1 sequence (A0A8R1WK71 1-683) with K475A

Experiment [3] concerns the target T3, BmArgRS (Bombyx mori, UniProt A0A8R1WK71, V468A).
T3 construct: gene 101737924; apparently full length (catalytic core 216-481)
T3 sequence (A0A8R1WK71 1-683 V468A): T1 sequence (A0A8R1WK71 1-683) with V468A

Residue numbers refer to the chain shown, from its start. pKd: −log10 of the molar value. Where a SMILES comes first, the peptide text is derived from it. [ ]: non-standard residue; d: D form. dLac(3-vinyl) = C=CC[C@@H](O)C(=O)O; NMeV = CN[C@H](C(=O)O)C(C)C; NMeA = CN[C@@H](C)C(=O)O; βAla = NCCC(=O)O

In the case of `C=CC[C@H]1OC(=O)CCNC(=O)[C@H](C)N(C)C(=O)[C@H](C(C)C)N(C)C(=O)[C@H]([C@@H](C)CC)NC(=O)[C@@H]2CCCN2C1=O` [Destruxin A] (cyclo(I[NMeV][NMeA][βAla][dLac(3-vinyl)]P)), the pKd at BmArgRS [1] is 4.26; at BmArgRS [2], 5.24; on BmArgRS [3], 4.28.
